Source: patent US9216964B2, “Hedgehog pathway modulators” (Novartis AG, priority 2008, dated 2015)

System: hedgehog signaling pathway
Assay: Gli-Luc Reporter Assay for Hh Pathway Inhibition (TMHh-12 cells, pTA-8×Gli-Luc reporter)
Format: cell-based, Mouse
Conditions: Mus musculus, TMHh12, enzymatic and cellular assays for the inhibition of hedgehog signaling pathways; read-out: IC50 Ranges
Method in brief: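 Mouse TM3 cells stably carrying an 8×Gli-firefly luciferase reporter, in 2% FBS medium; pathway activated with recombinant mouse Shh (8 μg/mL) or Smo agonist, compounds added at varying concentrations for 48 h. Luminescence read; IC50 at 50% signal reduction. Toxicity checked in TM3 cells (CellTiter-Glo) or constitutive-luciferase TM3-Luc cells.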

`Cc1ccc(-c2nc(Nc3cccc4c3CCN(CCS(C)(=O)=O)C4)ccc2C)nc1` [Compound 309] and `Cc1ccc(Nc2cccc3c2CCN(CCS(C)(=O)=O)C3)nc1-c1ccccn1` [Compound 311] fall in the same range of IC50: 10 to 100 nM for the first, 10 to 100 nM for the second.

First: CCOc1cnc(-c2cc(Nc3cccc4c3CCN(CCS(C)(=O)=O)C4)ccc2C)cn1 [Compound 310]
Second: CCOc1cnc(-c2cc(Nc3cccc4c3CCN(S(C)(=O)=O)C4)ccc2C)cn1 [Compound 314]
The IC50 of the first is higher: 1 to 10 nM for the first, 0.001 to 1 nM for the second. The second is the more potent here.

First: Cc1ccc(Nc2cccc3c2CCN(S(C)(=O)=O)C3)nc1-c1ccccn1 [Compound 312]
Second: CCOc1cnc(-c2nc(Nc3cccc4c3CCN(S(C)(=O)=O)C4)ccc2C)cn1 [Compound 333]
The IC50 of the first is lower: 1 to 10 nM for the first, 10 to 100 nM for the second. The first is the more potent here.

`CCOc1cnc(-c2cc(Nc3cccc4c3CCN(C3CS(=O)(=O)C3)C4)ccc2C)cn1` [Compound 313] and `CCOc1cnc(-c2cc(Nc3cccc4c3CCN(C3CCS(=O)(=O)CC3)C4)ccc2C)cn1` [Compound 335] fall in the same range of IC50: 1 to 10 nM for the first, 1 to 10 nM for the second.

`Cc1ccc(Nc2cccc3c2CCN(CCS(C)(=O)=O)C3)cc1-c1cc2ccccc2cn1` [Compound 315] and `Cc1ccc(Nc2cccc3c2CCN(C2CS(=O)(=O)C2)C3)cc1-c1cc2ccccc2cn1` [Compound 316] fall in the same range of IC50: 0.001 to 1 nM for the first, 0.001 to 1 nM for the second.

Compared with `Cc1ccc(-c2nc(Nc3cccc4c3CCN(C3CS(=O)(=O)C3)C4)ccc2Cl)nc1` [Compound 317], `CCOc1ccc(-c2nc(Nc3cccc4c3CCN(C3CS(=O)(=O)C3)C4)ccc2C)nn1` [Compound 329] is higher in IC50: 0.001 to 1 nM for the first, 10 to 100 nM for the second.

`CCS(=O)(=O)N1CCc2c(cccc2Nc2ccc(C)c(-c3ccc(OC)nn3)n2)C1` [Compound 318] and `COc1ccc(-c2nc(Nc3cccc4c3CCN(S(=O)(=O)C(C)C)C4)ccc2C)nn1` [Compound 319] fall in the same range of IC50: 1 to 10 nM for the first, 1 to 10 nM for the second.

`COc1ccc(-c2cc(Nc3cccc4c3CCN([C@@H]3CCS(=O)(=O)C3)C4)ccc2C)nn1` [Compound 321] and `COc1ccc(-c2cc(Nc3cccc4c3CCN([C@H]3CCS(=O)(=O)C3)C4)ccc2C)nn1` [Compound 322] fall in the same range of IC50: 1 to 10 nM for the first, 1 to 10 nM for the second.

`Cc1ccc(Nc2cccc3c2CCN(C2CCS(=O)(=O)C2)C3)cc1-c1cc2ccccc2cn1` (stereo not shown) [Compound 324] and `Cc1ccc(Nc2nccc3c2CCN(C2CCS(=O)(=O)CC2)C3)cc1-c1cc2ccccc2cn1` [Compound 344] fall in the same range of IC50: 0.001 to 1 nM for the first, 0.001 to 1 nM for the second.

`Cc1ccc(Nc2cccc3c2CCN(C2CS(=O)(=O)C2)C3)cc1-c1ncc(F)cc1F` [Compound 325] and `Cc1ccc(Nc2cccc3c2CCN(C2CCS(=O)(=O)C2)C3)cc1-c1ncc(F)cc1F` (stereo not shown) [Compound 326] fall in the same range of IC50: 0.001 to 1 nM for the first, 0.001 to 1 nM for the second.

`CCOc1ccc(-c2cc(Nc3cccc4c3CCN(C3CCS(=O)(=O)CC3)C4)ccc2C)nn1` [Compound 327] and `CCOc1ccc(-c2cc(Nc3cccc4c3CCN([C@@H]3CCS(=O)(=O)C3)C4)ccc2C)nn1` [Compound 339] fall in the same range of IC50: 1 to 10 nM for the first, 1 to 10 nM for the second.

First: CCOc1ccc(-c2nc(Nc3cccc4c3CCN(S(=O)(=O)C(C)C)C4)ccc2C)nn1 [Compound 328]
Second: CCOc1cnc(-c2nc(Nc3cccc4c3CCN(S(=O)(=O)C(C)C)C4)ccc2C)cn1 [Compound 336]
The IC50 of the first is lower: 1 to 10 nM for the first, 10 to 100 nM for the second.

First: CCOc1cnc(-c2nc(Nc3cccc4c3CCN(S(=O)(=O)CC)C4)ccc2C)cn1 [Compound 330]
Second: CCOc1ccc(-c2nc(Nc3cccc4c3CCN(C3CCS(=O)(=O)C3)C4)ccc2C)nn1 (stereo not shown) [Compound 334]
The IC50 of the first is lower: 1 to 10 nM for the first, 10 to 100 nM for the second. The first is the more potent here.

`Cc1ccc(Nc2nccc3c2CCN(S(C)(=O)=O)C3)cc1-c1cc2ccccc2cn1` [Compound 331] and `Cc1ccc(Nc2nccc3c2CCN(C2CS(=O)(=O)C2)C3)cc1-c1cc2ccccc2cn1` [Compound 332] fall in the same range of IC50: 10 to 100 nM for the first, 10 to 100 nM for the second.

`CCOc1ccc(-c2cc(Nc3cccc4c3CCN([C@H]3CCS(=O)(=O)C3)C4)ccc2C)nn1` [Compound 340] and `Cc1ccc(Nc2ncnc3c2CCN(C2CCS(=O)(=O)CC2)C3)cc1-c1cc2ccccc2cn1` [Compound 342] fall in the same range of IC50: 1 to 10 nM for the first, 1 to 10 nM for the second.

`Clc1ccc(Nc2ccc3c(c2)CN(C2CCOCC2)CC3)cc1-c1nc(-c2ccccc2)c[nH]1` [Compound 346] and `CCN1CCC(N2CCc3ccc(Nc4ccc(Cl)c(-c5nc(-c6ccccc6)c[nH]5)c4)cc3C2)CC1` [Compound 347] fall in the same range of IC50: 10 to 100 nM for the first, 10 to 100 nM for the second.

Same assay, conditions: enzymatic and cellular assays for the inhibition of hedgehog signaling pathways; read-out: IC50 Ranges

First: CCOc1ccc(-c2cc(Nc3cccc4c3CCN(C3CCS(=O)(=O)C3)C4)ccc2C)nn1 (stereo not shown) [Compound 323]
Second: Cc1ccc(Nc2cccc3c2CCN([C@@H]2CCS(=O)(=O)C2)C3)cc1-c1ncccc1F [Compound 341]
The IC50 of the first is higher: 1 to 10 nM for the first, 0.001 to 1 nM for the second.

`Cc1ccc(Nc2cccc3c2CCN(C2CCS(=O)(=O)C2)C3)cc1-c1ncc(F)cc1F` (stereo not shown) [Compound 338] and `Cc1ccc(Nc2cccc3c2CCN([C@H]2CCS(=O)(=O)C2)C3)cc1-c1ncccc1F` [Compound 343] fall in the same range of IC50: 0.001 to 1 nM for the first, 0.001 to 1 nM for the second.

In the case of `Cc1ccc(Nc2cccc3c2CCN([C@H]2CCS(=O)(=O)C2)C3)cc1-c1ncccc1F` [Compound 345], the IC50 is reported as 0.001 to 1 nM.
